Test system: area of the skin in need of beautifying
Experiment: Topical administration of beta-ionol analog to human skin
Assay type: in vivo
Conditions: daily treatments, after two weeks
Procedure: A Beta-ionol analog, melafleur alcohol, is administered topically to a human directly onto an area of the skin in need of beautifying.

## CC1(C)CCCC2=C1CC(CO)CC2 (stereo not shown) [melafleur alcohol, 2-Naphthalenemethanol, 1,2,3,4,5,6,7,8-octahydro-8,8-dimethyl-]
  health and vitality of treated areas of the skin: increased health and vitality

Source: US20040131648A1, “Nuclear hormone receptor compounds, products and methods employing same” (The Procter & Gamble Company, priority 2002, published 2004)
